The record followed here is patent publication US9516880B2, “Herbicidal and fungicidal 5-oxy-substituted 3-phenylisoxazoline-5-carboxamides and 5-oxy-substituted 3-phenylisoxazoline-5-thioamides” (BAYER CROPSCIENCE AG, priority 2012, dated 2016).

The subject of one experiment is Sphaerotheca fuliginea. The experiment is described as follows: In vivo protective test, Sphaerotheca fuliginea (powdery mildew in gherkins). As to conditions: application rate 500 ppm, gherkin plants, evaluation 12 days after inoculation, 0% = control, 100% = no infection. Here is the method: Example: In vivo protective test, Sphaerotheca fuliginea (powdery mildew in gherkins) To produce an appropriate active ingredient formulation, active ingredient is mixed with acetone/Tween/DMSO and diluted with water to the appropriate concentration. Gherkin plants (cultivar: Vert petit de Paris) are cultivated in 50/50 peat/pozzolan substrate at 24° C. and sprayed at the Z11 cotyledon stage with the active ingredient formulation specified above. Plants which serve as a control are treated with an aqueous solution without active ingredient. After 24 hours, the plants are sprayed with a spore suspension of Sphaerotheca fuliginea (100 000 spores/ml). The spores are collected from infected plants. The inoculated plants are placed at 20/25° C. and at 60/70% relative humidity.

In another experiment the test system is Phytophthora infestans. Format: in vivo. As to conditions: application rate 500 ppm; protective, tomato plants; evaluation 5 days after infection; 0% = control, 100% = no infection.
The test system of another experiment is Botrytis cinerea. In words: In vivo protective test, Botrytis cinerea (gray mold in gherkins). As to conditions: application rate 500 ppm, gherkin plants, evaluation 4-5 days after infection, 0% = control, 100% = no infection. On the procedure:
To produce an appropriate active ingredient formulation, active ingredient is mixed with acetone/Tween/DMSO and diluted with water to the appropriate concentration. Gherkin plants (Vert petit de Paris) are cultivated in 50/50 peat/pozzolan substrate at 24° C. and sprayed at the Z11 stage with the active ingredient formulation specified above. Plants which serve as a control are treated with an aqueous solution without active ingredient. After 24 hours, the plants are sprayed with a spore suspension of Botrytis cinerea (50 000 spores/ml). The spores are suspended in a nutrient solution consisting of 10 g/L PDB, 50 g/L D-Fructose, 2 g/L NH4NO3 and 1 g/L KH2PO4. The inoculated gherkin plants are incubated at 17° C. and at 80% relative air humidity.

Another experiment has as its system Septoria tritici. The experiment is described as follows: In vivo protective test, Septoria tritici (blotch in wheat). Particulars: application rate 500 ppm, wheat plants, evaluation 21-28 days after inoculation, 0% = control, 100% = no infection. On the procedure: To produce an appropriate active ingredient formulation, active ingredient is mixed with acetone/Tween/DMSO and diluted with water to the appropriate concentration. Wheat plants (cultivar: Scipion) are cultivated in 50/50 peat/pozzolan substrate at 22° C. (12 h)/20° C. (12 h) and sprayed at the 1-leaf stage (height 10 cm) with the active ingredient formulation specified above. Control plants are sprayed with an aqueous solution without added active ingredient. After 24 hours, the plants are sprayed with a spore suspension of cryopreserved Septoria tritici (500 000 spores/ml).

For the next experiment, the system named is Plasmopara viticola. In words: Plasmopara test (grapevine)/protective. The format is in vivo. Particulars: Plasmopara viticola on grapevine, protective, active ingredient concentration 100 ppm, 6 days after inoculation. Here is the method: The plants are then moistened and placed in an incubation cabin for 1 day.
In another experiment the test system is Venturia inaequalis. In words: Venturia test (apple)/protective. Particulars: Venturia inaequalis on apple, protective, active ingredient concentration 100 ppm, 10 days after inoculation.

Experimental for Venturia inaequalis: • Solvents: 24.5 parts by weight of acetone • 24.5 parts by weight of dimethylacetamide • Emulsifier: 1 part by weight of alkylaryl polyglycol ether
To produce an appropriate active ingredient formulation, 1 part by weight of active ingredient is mixed with the stated amounts of solvent and emulsifier, and the concentrate is diluted with water to the desired concentration.
To test for protective efficacy, young plants are sprayed with the active ingredient formulation at the stated application rate. After the spray coating has dried on, the plants are inoculated with an aqueous conidia suspension of the apple scab pathogen Venturia inaequalis and then remain in an incubation cabin at about 20° C. and 100% relative air humidity for 1 day.
The plants are then placed in a greenhouse at about 21° C. and a relative air humidity of about 90%.
Evaluation follows 10 days after the inoculation.

With `COCC(C)NC(=O)C1(OC)CC(c2cc(F)cc(F)c2)=NO1` (single isomer, unassigned) [1.11-19 D1], the “Efficacy [%]” value in the experiment with Sphaerotheca fuliginea, in the experiment on Phytophthora infestans, with Botrytis cinerea and with Septoria tritici was 100% each time.
`COCC(C)NC(=O)C1(OC)CC(c2cc(Cl)cc(Cl)c2)=NO1` (single isomer, unassigned) [1.20-19 D2]: the “Efficacy [%]” value in the experiment with Sphaerotheca fuliginea, in the experiment on Phytophthora infestans, in the experiment on Botrytis cinerea and with Septoria tritici was 100% each time.
Turning to `CCn1cc(CNC(=O)C2(OC)CC(c3cccc(Cl)c3)=NO2)cn1` (centres unmarked) [Compound 1.3-206], the figures for the “Efficacy [%]” value with Sphaerotheca fuliginea and in the experiment on Septoria tritici were 94% and 100%, respectively.
Consider `CCOC(=O)CC(C)NC(=O)C1(OC)CC(c2cccc(CC)c2)=NO1` (centres unmarked) [Compound 1.6-96], for which the “Efficacy [%]” value in the experiment on Botrytis cinerea worked out at 95%; in the experiment on Septoria tritici, 75%.
In the case of `COc1cccc(C2=NOC(OC)(C(=O)NCc3ccc(Cl)nc3)C2)c1` (centres unmarked) [Compound 1.7-110], the “Efficacy [%]” value in the experiment on Botrytis cinerea and with Septoria tritici was 100% each time.
Take `COC1(C(=O)NCc2ccc(Cl)nc2)CC(c2cc(F)cc(F)c2)=NO1` (centres unmarked) [Compound 1.11-110]: the “Efficacy [%]” value in the experiment on Sphaerotheca fuliginea is reported as 78%; with Phytophthora infestans, 100%; in the experiment with Botrytis cinerea it was 90%; in the experiment with Septoria tritici, 100%.
As for `COC1(C(=O)NCc2nc(C)cc(C)n2)CC(c2cc(F)cc(F)c2)=NO1` (centres unmarked) [Compound 1.11-189], the “Efficacy [%]” value with Phytophthora infestans is 100%.
Turning to `COC1(C(=O)NCc2cccnc2Cl)CC(c2cc(F)cc(F)c2)=NO1` (centres unmarked) [Compound 1.11-238], the “Efficacy [%]” value in the experiment with Sphaerotheca fuliginea was found to be 83%; with Phytophthora infestans, 99%; in the experiment on Botrytis cinerea, 100%; in the experiment on Septoria tritici, 100%.
As for `COC1(C(=O)NCc2ccnc(Cl)c2)CC(c2cc(C)cc(F)c2)=NO1` (centres unmarked) [Compound 1.14-136], the “Efficacy [%]” value in the experiment on Botrytis cinerea amounted to 88%.
Take `CCn1cc(CNC(=O)C2(OC)CC(c3cc(C)cc(F)c3)=NO2)cn1` (centres unmarked) [Compound 1.14-206]: the “Efficacy [%]” value stood at 98% in the experiment on Sphaerotheca fuliginea, 100% in the experiment on Phytophthora infestans, 100% in the experiment with Botrytis cinerea and 100% in the experiment with Septoria tritici.
In the case of `CCOC(=O)CCNC(=O)C1(OC)CC(c2cc(F)cc(OC)c2)=NO1` (centres unmarked) [Compound 1.16-94], the “Efficacy [%]” value with Botrytis cinerea came out at 75%.
For the molecule `CCOC(=O)CC(C)NC(=O)C1(OC)CC(c2cc(F)cc(OC)c2)=NO1` (centres unmarked) [Compound 1.16-96], the results for the “Efficacy [%]” value with Sphaerotheca fuliginea, in the experiment with Botrytis cinerea and in the experiment with Septoria tritici were 78%, 85% and 88%, respectively.
On the same counts, the results for `COc1cc(F)cc(C2=NOC(OC)(C(=O)NCc3ccc(Cl)nc3)C2)c1` (centres unmarked) [Compound 1.16-110] are 89%, 100% and 100%.
For the molecule `CCn1cc(CNC(=O)C2(OC)CC(c3cc(F)cc(C(F)(F)F)c3)=NO2)cn1` (centres unmarked) [Compound 1.18-206], the “Efficacy [%]” value in the experiment on Sphaerotheca fuliginea is 95%; with Phytophthora infestans it was 90%; in the experiment with Botrytis cinerea, 100%.
Take `COC1(C(=O)NC(C)C)CC(c2cc(Cl)cc(Cl)c2)=NO1` (centres unmarked) [Compound 1.20-5]: the “Efficacy [%]” value in the experiment on Plasmopara viticola amounted to 99%; with Venturia inaequalis, 96%.
For `COC1(C(=O)NC2(C#N)CC2)CC(c2cc(Cl)cc(Cl)c2)=NO1` (centres unmarked) [Compound 1.20-64], the “Efficacy [%]” value was 98% with Sphaerotheca fuliginea, 100% in the experiment on Phytophthora infestans, 70% with Botrytis cinerea and 100% with Septoria tritici.
Consider `COC1(C(=O)NCc2ccc(Cl)nc2)CC(c2cc(Cl)cc(Cl)c2)=NO1` (centres unmarked) [Compound 1.20-110], for which the “Efficacy [%]” value in the experiment on Botrytis cinerea is 83%; in the experiment on Septoria tritici it was 100%.
Consider `COC1(C(=O)NCc2ccncc2)CC(c2cc(Cl)cc(Cl)c2)=NO1` (centres unmarked) [Compound 1.20-135], for which the “Efficacy [%]” value with Sphaerotheca fuliginea was found to be 98%; with Botrytis cinerea, 100%; with Septoria tritici it was 100%.
As to `C=CCNC(=O)C1(OC)CC(c2cc(Cl)cc(OC(F)(F)F)c2)=NO1` (centres unmarked) [Compound 1.25-16], the “Efficacy [%]” value in the experiment on Sphaerotheca fuliginea turned out to be 95%; in the experiment on Botrytis cinerea it was 100%; in the experiment with Septoria tritici, 97%.
In the case of `COC1(C(N)=O)CC(c2cc(Br)cc(OC(F)(F)F)c2)=NO1` (centres unmarked) [Compound 1.32-1], the “Efficacy [%]” value with Septoria tritici came to 98%.
For the molecule `COC1(C(=O)NC2CC2)CC(c2cc(Br)cc(OC(F)(F)F)c2)=NO1` (centres unmarked) [Compound 1.32-60], the “Efficacy [%]” value in the experiment with Sphaerotheca fuliginea, in the experiment with Botrytis cinerea and with Septoria tritici was 100% throughout.
Take `CCn1cc(CNC(=O)C2(OC)CC(c3cc(Br)cc(OC(F)(F)F)c3)=NO2)cn1` (centres unmarked) [Compound 1.32-206]: the “Efficacy [%]” value was found to be 96% in the experiment on Botrytis cinerea and 100% in the experiment on Septoria tritici.
As to `COC1(C(=O)NC2CC2)CC(c2cc(Br)cc(C(F)(F)F)c2)=NO1` (centres unmarked) [Compound 1.33-60], the “Efficacy [%]” value in the experiment on Sphaerotheca fuliginea, with Botrytis cinerea and in the experiment with Septoria tritici was 100% throughout.
For the molecule `COC(=O)CCCNC(=O)C1(OC)CC(c2cc(Br)cc(C(F)(F)F)c2)=NO1` (centres unmarked) [Compound 1.33-102], the “Efficacy [%]” value with Sphaerotheca fuliginea and in the experiment with Septoria tritici was 100% throughout.
Take `CCOC1(C(=O)NCc2cnn(CC)c2)CC(c2cc(F)cc(F)c2)=NO1` (centres unmarked) [Compound 2.11-206]: the “Efficacy [%]” value in the experiment with Phytophthora infestans was determined as 100%; in the experiment with Septoria tritici it was 83%.
